From patent US7576204B2, “Heterocyclic macrolide pharmaceutical agent, a method of producing the same and use of the same” (priority 2002, dated 2009)

Assays:
VEGF promoter = experiment: VEGF transcription inhibitory activity, VEGF-PLAP reporter in U251/1-8 cells under hypoxic conditions; format: cell-based; conditions: Homo sapiens, U-251, hypoxic (2% O2) incubator 18 hours, PLAP activity in culture supernatant
Source text: In order to prepare a reporter system in which transcription from a VEGF promoter is reflected, a VEGF promoter sequence was cloned and inserted into a placental alkaline phosphatase (PLAP) vector to construct a reporter vector.
In order to obtain a promoter region of human VEGF, a VEGF genome was cloned from a phage library. Based on VEGF cDNA (GenBank accession number: X62568), a PCR primer with the sequence described as SEQ ID NO: 1 or SEQ ID NO: 2 was designed and used for conducting PCR, thereby obtaining a fragment of about 340 bp. A human genomic phage library (human genomic library, Clontech) was screened using this fragment as a probe to obtain pUC18-VEGFA containing a VEGF 5′-flanking region of about 5.4 kb. This pUC18-VEGFA was cut with Kpn I/Nhe I to obtain a VEGF promoter region of about 2.3 kb, and the region was inserted into the multicloning site Kpn I/Nhe I of the placental alkaline phosphatase (PLAP) reporter vector (Goto et al., Mol. Pharmacol., 49, 860-873, 1996) to construct a VEGF-PLAP vector.
The above-described VEGF-PLAP vector was introduced into U251 cells cultured in a Dulbecco's modified Eagle's medium containing 10% fetal bovine serum (DMEM, manufactured by Sigma Co.), and cultured in the presence of 1 mg/ml G418 (Merck & Co., Inc.) to establish a G418-resistant stable clone (U251/1-8 cells).
As in a report by Minchenko et al. (Cell. Mol. Biol. Res., 40, 35-39, 1994), U251/1-8 cells were confirmed to be a reporter system which secretes PLAP into a culture medium under hypoxic conditions (2% O2 incubator), and in which transcription from a VEGF promoter is reflected. […]
The cells were cultured in a CO2 incubator (5% CO2) at 37° C. overnight, and 20 μl of the above-described culture solution containing the test compound at threefold serial dilutions was added. […] After the reaction for one hour, chemiluminescence was detected using a microplate reader (PerkinElmer) to measure the PLAP activity as the alkaline phosphatase activity. […] The IC50 values of compounds of the formula (I) were determined.

[1] = test system: WiDr human colon cancer cells; experiment: Action of inhibiting proliferation of WiDr human colon cancer cells (MTT); format: cell-based; conditions: 72 h, three days culture, read-out: WiDr human colon cancer cell proliferation inhibitory activity (IC50: nM)
Protocol: 2×10^3 cells/well of WiDr human colon cancer cells cultured in a Dulbecco's modified Eagle's medium containing 10% fetal bovine serum, penicillin (100 units/mL) and streptomycin (100 μg/mL) (DMEM, manufactured by Sigma Co.) were plated in a 96-well plate. The cells were cultured in a CO2 incubator overnight, and 20 μL of the above-described culture solution containing the test compound at threefold serial dilutions was added for culturing the cells. After three days, 50 μL of a 3.3 mg/mL MTT solution was added, and the cells were further cultured for one hour. Then, formazan generated by reduction by living cells was extracted with 100 μL of DMSO to measure the absorbance (A540/A660), which was used as an index of the number of living cells.
The concentration for inhibiting 50% of proliferation of WiDr human colon cancer cells (IC50 value) of the compound of the formula (I) was determined.

[2] = test system: P388 mouse leukemia cells; conditions: in vivo experiment using P388 mouse leukemia cells; cited from earlier work
[3] = test system: P388 mouse leukemia cells; conditions: RPM-1640 culture medium; cited from earlier work
[4] = test system: L-1210 mouse leukemia cells; conditions: RPM-1640 culture medium; cited from earlier work
[5] = test system: HL-60 human leukemia cells; conditions: RPM-1640 culture medium; cited from earlier work
[6] = Stability in an aqueous solution

SMILES | IC50 (VEGF promoter) | IC50 [1] | Antitumor activity in vivo [2] | Cytotoxic activity in vitro [3] | Cytotoxic activity in vitro [4] | Cytotoxic activity in vitro [5] | Stability in an aqueous solution [6]
CCC(OC(=O)c1ccccc1)C(C)C1OC1CC(C)/C=C/C=C(\C)C1OC(=O)CC(O)CCC(C)(O)C(OC(=O)N2CCN(C)CC2)/C=C/C1C (centres unmarked) [Example 1, (8E,12E,14E)-21-benzoyloxy-3,6-dihydroxy-6,10,12,16,20-pentamethyl-7-((4-methylpiperazin-1-yl)carbonyl)oxy-18,19-epoxytricosa-8,12,14-trien-11-olide] | 20.7 nM | 5.9 nM |  |  |  |  | 
CCC(OC(=O)N(C)C)C(C)C1OC1CC(C)/C=C/C=C(\C)C1OC(=O)CC(O)CCC(C)(O)C(OC(=O)N2CCN(C)CC2)/C=C/C1C (centres unmarked) [Example 2, (8E,12E,14E)-21-(N,N-dimethylcarbamoyloxy)-3,6-dihydroxy-6,10,12,16,20-pentamethyl-7-((4-methylpiperazin-1-yl)carbonyl)oxy-18,19-epoxytricosa-8,12,14-trien-11-olide] | 4.2 nM | 2.4 nM |  |  |  |  | 
CCC(OC(=O)Nc1ccccc1)C(C)C1OC1CC(C)/C=C/C=C(\C)C1OC(=O)CC(O)CCC(C)(O)C(OC(=O)N2CCN(C)CC2)/C=C/C1C (centres unmarked) [Example 3, (8E,12E,14E)-3,6-dihydroxy-6,10,12,16,20-pentamethyl-7-((4-methylpiperazin-1-yl)carbonyl)oxy-21-(N-phenylcarbamoyloxy)-18,19-epoxytricosa-8,12,14-trien-11-olide] | 11.8 nM | 4.8 nM |  |  |  |  | 
CCC(OC)C(C)C1OC1C(O)C(C)/C=C/C=C(\C)C1OC(=O)CC(O)CCC(C)(O)C(OC(C)=O)/C=C/C1C (centres unmarked) [FD-895] |  |  | did not show antitumor activity | has cytotoxic activity in vitro | has cytotoxic activity in vitro | has cytotoxic activity in vitro | instable in an aqueous solution
